{"source": "paper PMC8579695", "about": "“The Stringent Response Inhibits 70S Ribosome Formation in Staphylococcus aureus by Impeding GTPase-Ribosome Interactions” (mBio, 2021)", "target": "RbgA (Staphylococcus aureus, UniProt A0A0H2XK72)", "sequence (A0A0H2XK72 entry or part of it)": "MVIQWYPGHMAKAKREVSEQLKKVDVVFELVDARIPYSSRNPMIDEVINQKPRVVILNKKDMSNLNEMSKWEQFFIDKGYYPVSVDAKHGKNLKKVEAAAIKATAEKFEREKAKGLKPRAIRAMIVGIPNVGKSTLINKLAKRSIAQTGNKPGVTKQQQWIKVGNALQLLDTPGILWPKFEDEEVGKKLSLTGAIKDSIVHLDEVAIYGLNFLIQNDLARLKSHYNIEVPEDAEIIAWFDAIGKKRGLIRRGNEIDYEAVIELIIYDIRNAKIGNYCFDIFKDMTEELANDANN", "assay": "GTPase activity assay of wild-type and Atto488-labeled RbgA", "type": "biochemical", "settings": "100 μM ppGpp, 1 μM GTP, 0.1 μM RA-GTPase, 0.1 μM 70S ribosomes, 37°C, 60 min", "from_the_text": "To gain further insight into the binding mechanism and how (p)ppGpp reduces the association of RA-GTPases to the ribosomal subunits, we used a stopped-flow technique with fluorescent derivatives of the RA-GTPases (Fig. 3A). Structural predictions of all four RA-GTPases were built by homology modeling using available structures to assess the availability of suitable residues for fluorescence labeling (see Fig. S3A and B) ([43]). Both RbgA and HflX were amenable to covalent linkage to the fluorophore Atto-488 using maleimide chemistry with exposed cysteine residues. […]\nSupplementary file : FIG S3 Labeling sites and GTPase activity of Atto488-labelled proteins. […] Enzymatic activity was monitored by TLC and quantified by using ImageQuant. […]\nGTPase activity assays were performed as previously described ([10]). Briefly, the ability of proteins to hydrolyze GTP was determined by incubating 100 nM recombinant protein with 100 nM S. aureus 70S ribosomes, 1 μM GTP and 2.78 nM [α-^32P]GTP in 40 mM Tris (pH 7.5), 100 mM NaCl (100 mM KCl for RbgA), and 10 mM MgCl2 at 37°C for the indicated times. […] The radioactive spots were exposed to a BAS-MS imaging plate (Fujifilm) and visualized using an LA 7000 Typhoon PhosphorImager (GE Healthcare), and images were quantified using ImageQuant (GE Healthcare).", "data": [{"smiles": "Nc1nc2c(ncn2[C@@H]2O[C@H](COP(=O)(O)OP(=O)(O)O)[C@@H](OP(=O)(O)OP(=O)(O)O)[C@H]2O)c(=O)[nH]1", "note": "[ppGpp]", "values": [{"measurement": "inhibition of GTPase activity of Atto488-labeled RbgA", "value": "can still be inhibited"}]}]}
